Test results taken from the NIST ThermoML archive (doi:10.1016/j.jct.2012.02.023).
± gives the expanded uncertainty stated by the source.

Experiment: xn = mol fraction of the nth substance listed
Details: 101 kPa, Liquid; for speed of sound: Sing-around technique in a fixed-path interferometer; for mass density: Vibrating tube method

CCCC[n+]1cccc(C)c1.F[B-](F)(F)F [1-butyl-3-methylpyridinium tetrafluoroborate] + CCO
Details	mass density, 293.15 K [kg/m3]	mass density, 303.15 K [kg/m3]	mass density, 313.15 K [kg/m3]	mass density, 323.15 K [kg/m3]	speed of sound, 293.15 K [m/s]	speed of sound, 303.15 K [m/s]	speed of sound, 313.15 K [m/s]	speed of sound, 323.15 K [m/s]
x1 = 0.0572	861.245 ± 0.42	852.837 ± 0.42	844.506 ± 0.43	835.724 ± 0.43	1206 ± 1.3	1177 ± 1.3	1146.5 ± 1.3	1116.4 ± 1.3
x1 = 0.0964	900.833 ± 0.38	892.417 ± 0.39	884.287 ± 0.39	875.61 ± 0.39	1239.4 ± 1.3	1212.4 ± 1.3	1183.6 ± 1.3	1155.2 ± 1.3
x1 = 0.1466	942.807 ± 0.33	934.902 ± 0.33	926.796 ± 0.33	918.466 ± 0.34	1281 ± 1.3	1254.5 ± 1.3	1228.4 ± 1.3	1202 ± 1.3
x1 = 0.1964	977.495 ± 0.28	969.562 ± 0.28	961.571 ± 0.28	953.451 ± 0.28	1320 ± 1.4	1294.8 ± 1.4	1269.1 ± 1.4	1244.2 ± 1.4
x1 = 0.2431	1004.66 ± 0.24	996.702 ± 0.24	988.807 ± 0.24	980.836 ± 0.24	1355.1 ± 1.4	1330 ± 1.4	1304.6 ± 1.4	1279.3 ± 1.4
x1 = 0.2998	1032.24 ± 0.21	1024.76 ± 0.21	1016.86 ± 0.21	1009.22 ± 0.21	1390.6 ± 1.4	1365.5 ± 1.4	1340.4 ± 1.4	1315.4 ± 1.4
x1 = 0.3966	1069.96 ± 0.22	1062.42 ± 0.21	1055 ± 0.21	1047.46 ± 0.21	1442.7 ± 1.4	1417.4 ± 1.4	1392.4 ± 1.4	1366.2 ± 1.4
x1 = 0.4984	1100.02 ± 0.23	1092.8 ± 0.23	1085.55 ± 0.23	1078.03 ± 0.22	1484.2 ± 1.4	1459.2 ± 1.4	1434.3 ± 1.4	1409.9 ± 1.4
x1 = 0.5931	1122.42 ± 0.25	1115.36 ± 0.25	1108.06 ± 0.24	1100.95 ± 0.24	1515.9 ± 1.5	1491 ± 1.4	1466.4 ± 1.4	1442.2 ± 1.4
x1 = 0.691	1141.63 ± 0.28	–	1127.5 ± 0.27	1120.36 ± 0.27	1543.7 ± 1.5	–	1494.9 ± 1.5	1471.2 ± 1.5
x1 = 0.8022	1159.85 ± 0.32	–	1145.95 ± 0.31	1138.97 ± 0.3	1566.2 ± 1.5	–	1517.2 ± 1.5	1493.8 ± 1.5
x1 = 0.8923	1172.56 ± 0.35	–	1158.84 ± 0.34	1151.94 ± 0.33	1582.6 ± 1.6	–	1534.7 ± 1.5	1511.3 ± 1.5
x1 = 0.9517	1180.05 ± 0.37	–	1166.44 ± 0.36	1159.62 ± 0.35	1591.7 ± 1.6	–	1543.7 ± 1.6	1519.5 ± 1.6

CCCC[n+]1cccc(C)c1.F[B-](F)(F)F [1-butyl-3-methylpyridinium tetrafluoroborate] + CO
Details	mass density, 293.15 K [kg/m3]	mass density, 303.15 K [kg/m3]	mass density, 313.15 K [kg/m3]	mass density, 323.15 K [kg/m3]	speed of sound, 293.15 K [m/s]	speed of sound, 303.15 K [m/s]	speed of sound, 313.15 K [m/s]	speed of sound, 323.15 K [m/s]
x1 = 0.0481	876.902 ± 0.5	868.149 ± 0.5	858.994 ± 0.51	850.146 ± 0.51	1203.1 ± 1.3	1173.4 ± 1.3	1143.9 ± 1.3	1114.7 ± 1.3
x1 = 0.1001	940.659 ± 0.42	932.121 ± 0.43	923.594 ± 0.43	915.022 ± 0.44	1271 ± 1.3	1243.3 ± 1.3	1215.7 ± 1.3	1188.3 ± 1.3
x1 = 0.1548	988.767 ± 0.32	980.512 ± 0.33	972.213 ± 0.33	964.125 ± 0.33	1330.9 ± 1.3	1304.2 ± 1.3	1277.6 ± 1.3	1251.7 ± 1.3
x1 = 0.2003	1019.3 ± 0.25	1011.19 ± 0.25	1003.35 ± 0.25	995.225 ± 0.26	1370 ± 1.3	1344 ± 1.3	1318.1 ± 1.3	1292.4 ± 1.3
x1 = 0.2487	1045.53 ± 0.21	1037.61 ± 0.21	1029.56 ± 0.21	1021.63 ± 0.21	1407.2 ± 1.3	1381.6 ± 1.3	1356 ± 1.3	1330.8 ± 1.3
x1 = 0.297	1066.65 ± 0.18	1058.61 ± 0.17	1050.84 ± 0.17	1042.82 ± 0.17	1433.6 ± 1.3	1408.1 ± 1.3	1382.9 ± 1.3	1358 ± 1.3
x1 = 0.4013	1101.04 ± 0.18	1093.31 ± 0.18	1085.48 ± 0.17	1077.9 ± 0.17	1482.7 ± 1.3	1457.9 ± 1.3	1433 ± 1.3	1415 ± 1.3
x1 = 0.4969	1123.82 ± 0.19	1116.42 ± 0.19	1108.81 ± 0.18	1101.29 ± 0.18	1514.2 ± 1.4	1489.3 ± 1.4	1464.9 ± 1.4	1443.1 ± 1.3
x1 = 0.5974	1142.04 ± 0.22	1134.73 ± 0.21	1127.47 ± 0.21	1120.24 ± 0.21	1538.7 ± 1.4	1514.1 ± 1.4	1489.9 ± 1.4	1466.2 ± 1.4
x1 = 0.6972	1156.18 ± 0.25	1149.17 ± 0.24	1142.08 ± 0.24	1135 ± 0.24	1557.9 ± 1.4	1533.5 ± 1.4	1509.5 ± 1.4	1485.8 ± 1.4
x1 = 0.8437	1172.39 ± 0.31	1165.51 ± 0.3	1158.69 ± 0.3	1151.77 ± 0.29	1580.4 ± 1.5	1556.2 ± 1.5	1532.6 ± 1.5	1509.2 ± 1.5
x1 = 0.8984	1177.43 ± 0.33	1170.57 ± 0.33	1163.79 ± 0.32	1156.96 ± 0.32	1587.2 ± 1.5	1562.8 ± 1.5	1539.3 ± 1.5	1516 ± 1.5
x1 = 0.9692	1183.29 ± 0.37	1176.48 ± 0.36	1169.74 ± 0.36	1162.98 ± 0.35	1595.6 ± 1.6	1571.3 ± 1.6	1547.5 ± 1.6	1524.5 ± 1.6
